Experiment [1] deals with T1, Kappa-type opioid receptor (Homo sapiens, UniProt P41145). Conditions: CHO.
Description: Antagonist activity at human kappa opioid receptor expressed in CHO cells coexpressing human recombinant KOP after 3 hrs by [35S]GTPgammaS binding assay
Experiment [2] has as its target T2, Mu-type opioid receptor (Homo sapiens, UniProt P35372). Description: biochemical. It counts as cell-based, CHO.
Experiment [3] addresses Delta-type opioid receptor (Homo sapiens, UniProt P41143). Put plainly: Displacement of [125I]IOXY from human delta opioid receptor expressed in CHO cells coexpressing human recombinant DOR after 2 hrs by liquid scintillation counting. Type of experiment: cell-based. Background: Loss of bound radioactivity is the signal in a displacement assay; it reports binding, not function.

For experiment [4], the target named is T2, Mu-type opioid receptor. Particulars: CHO.
Description: Antagonist activity at human mu opioid receptor expressed in CHO cells coexpressing human recombinant MOR after 3 hrs by [35S]GTPgammaS binding assay
Experiment [5] addresses T1, Kappa-type opioid receptor. Put plainly: Displacement of [125I]IOXY from human kappa opioid receptor expressed in CHO cells coexpressing human recombinant KOP after 2 hrs by liquid scintillation counting. It counts as cell-based.

We go through eight compounds from ChEMBL document CHEMBL1806350, “Probes for narcotic receptor mediated phenomena. 43. Synthesis of the ortho-a and para-a, and improved synthesis and optical resolution of the ortho-b and para-b oxide-bridged phenylmorphans: compounds with moderate to low opioid-receptor affinity” (Bioorg Med Chem, 2011).

Delta-type opioid receptor, sequence (P41143 whole entry): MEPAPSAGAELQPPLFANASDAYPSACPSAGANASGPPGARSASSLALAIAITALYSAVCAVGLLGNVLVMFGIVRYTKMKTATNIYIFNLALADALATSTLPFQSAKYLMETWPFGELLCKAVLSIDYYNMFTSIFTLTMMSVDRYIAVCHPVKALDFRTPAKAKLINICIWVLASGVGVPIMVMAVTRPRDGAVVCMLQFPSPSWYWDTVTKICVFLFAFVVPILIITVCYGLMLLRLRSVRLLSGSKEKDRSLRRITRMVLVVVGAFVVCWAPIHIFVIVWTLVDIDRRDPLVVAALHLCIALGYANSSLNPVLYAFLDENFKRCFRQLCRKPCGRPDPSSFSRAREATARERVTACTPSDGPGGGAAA
T1 sequence (P41145 whole entry): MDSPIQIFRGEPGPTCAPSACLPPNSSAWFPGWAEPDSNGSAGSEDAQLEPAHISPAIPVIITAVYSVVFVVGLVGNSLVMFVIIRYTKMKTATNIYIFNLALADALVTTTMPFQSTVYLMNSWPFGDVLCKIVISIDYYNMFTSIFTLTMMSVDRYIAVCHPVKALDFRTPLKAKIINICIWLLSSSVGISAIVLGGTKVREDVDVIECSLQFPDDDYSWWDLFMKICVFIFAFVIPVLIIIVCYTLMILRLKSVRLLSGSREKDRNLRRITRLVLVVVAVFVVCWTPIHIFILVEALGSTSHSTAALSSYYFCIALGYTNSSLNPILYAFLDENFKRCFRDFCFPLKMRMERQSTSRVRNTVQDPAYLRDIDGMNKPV
T2 sequence (P35372 whole entry): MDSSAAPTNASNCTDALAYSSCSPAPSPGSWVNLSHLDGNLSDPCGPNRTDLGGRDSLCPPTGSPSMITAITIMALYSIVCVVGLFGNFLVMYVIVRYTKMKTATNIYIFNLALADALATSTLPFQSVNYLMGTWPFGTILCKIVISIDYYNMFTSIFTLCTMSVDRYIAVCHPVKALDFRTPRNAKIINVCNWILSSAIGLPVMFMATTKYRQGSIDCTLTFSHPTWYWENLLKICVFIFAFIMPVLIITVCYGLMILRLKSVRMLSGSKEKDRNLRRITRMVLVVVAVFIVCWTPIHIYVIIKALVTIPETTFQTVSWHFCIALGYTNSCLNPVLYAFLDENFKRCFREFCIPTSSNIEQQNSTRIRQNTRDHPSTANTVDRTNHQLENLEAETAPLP

Broadly, the Ki is the dissociation constant of the complex between target and ligand, obtained from inhibition or displacement. Turning to `Oc1ccc2c(c1)[C@@]13CCN(CCc4ccccc4)[C@@H](CC[C@H]1O2)C3`, the Ke in experiment [1] is 103 nM; on Mu-type opioid receptor [4], 227 nM. The Ki at Mu-type opioid receptor [2] is 0.352 µM; in experiment [3] it was greater than 5 µM; in experiment [5], 0.102 µM.

Turning to `Oc1ccc2c(c1)[C@]13CCN(CCc4ccccc4)[C@H](CC[C@@H]1O2)C3`, the Ke in experiment [1] turned out to be 100 nM; on Mu-type opioid receptor [4], 47 nM. The Ki at Mu-type opioid receptor [2] is 0.25 µM; in experiment [3] it was greater than 5 µM; in experiment [5], 0.199 µM.

For the compound `CN1CC[C@]23C[C@H]1CC[C@H]2Oc1c(O)cccc13` (racemic), the Ki is greater than 2.8 µM on Mu-type opioid receptor [2], greater than 4.9 µM in experiment [3] and 7.5 µM in experiment [5].

On to `Oc1cccc2c1O[C@@H]1CC[C@H]3C[C@@]21CCN3CCc1ccccc1`, for which the Ke in experiment [1] was 22 nM; at Mu-type opioid receptor [4], 31 nM. The inhibition constant Ki on Mu-type opioid receptor [2] was 0.049 µM; in experiment [3] it was greater than 5 µM; in experiment [5], 0.042 µM.

In the case of `Oc1ccc2c(c1)[C@]13CCN(CCc4ccccc4)[C@H](CC[C@H]1O2)C3` (racemic), the Ke was 46 nM in experiment [1] and 23 nM at Mu-type opioid receptor [4]. Further, the Ki was 0.486 µM at Mu-type opioid receptor [2], greater than 4.9 µM in experiment [3] and 0.098 µM in experiment [5].

On to `Oc1cccc2c1O[C@@H]1CC[C@@H]3C[C@]21CCN3CCc1ccccc1` (racemic), for which the Ke in experiment [1] turned out to be 163 nM; at Mu-type opioid receptor [4], 274 nM. For the same compound, the Ki on Mu-type opioid receptor [2] was 0.167 µM; in experiment [3] it was greater than 4.9 µM; in experiment [5], 0.171 µM.

For `Oc1cccc2c1O[C@H]1CC[C@@H]3C[C@]21CCN3CCc1ccccc1`, the Ke was found to be 761 nM in experiment [1] and 328 nM on Mu-type opioid receptor [4]. Moreover, the Ki is 0.384 µM on Mu-type opioid receptor [2] (cho), greater than 5 µM in experiment [3] (cho) and 0.367 µM in experiment [5] (cho).

On to `CN1CC[C@]23C[C@H]1CC[C@H]2Oc1ccc(O)cc13` (racemic), for which the inhibition constant (Ki) was greater than 2.8 µM on Mu-type opioid receptor [2], greater than 4.9 µM in experiment [3] and greater than 8.6 µM in experiment [5].
